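Exposure lasted 48 hours, with cells grown in 96-well plates and compounds tested at five concentrations. TGI: total growth inhibition.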
What was measured:
Experiment in all cases: growth of human tumour cells (NCI), 48 h
786-0 renal = tested on: 786-0 renal
A498 renal = tested on: A498 renal
A549 NSCLC = tested on: A549 NSCLC
ACHN renal = tested on: ACHN renal
BT-549 breast = tested on: BT-549 breast
CAKI-1 renal = tested on: CAKI-1 renal
COLO 205 colon = tested on: COLO 205 colon
DU-145 prostate = tested on: DU-145 prostate
EKVX NSCLC = tested on: EKVX NSCLC
HCC-2998 colon = tested on: HCC-2998 colon
HCT-15 colon = tested on: HCT-15 colon
HOP-62 NSCLC = tested on: HOP-62 NSCLC
HOP-92 NSCLC = tested on: HOP-92 NSCLC
HT29 colon = tested on: HT29 colon
K-562 leukemia = tested on: K-562 leukemia
M14 melanoma = tested on: M14 melanoma
MALME-3M melanoma = tested on: MALME-3M melanoma
MCF7 breast = tested on: MCF7 breast
MDA-MB-231 breast = tested on: MDA-MB-231 breast
MDA-MB-435 = tested on: MDA-MB-435
MDA-N = tested on: MDA-N
MOLT-4 leukemia = tested on: MOLT-4 leukemia
NCI-H226 lung = tested on: NCI-H226 lung
NCI-H23 lung = tested on: NCI-H23 lung
NCI-H460 lung = tested on: NCI-H460 lung
NCI-H522 lung = tested on: NCI-H522 lung
NCI/ADR-RES ovarian = tested on: NCI/ADR-RES ovarian
OVCAR-3 ovarian = tested on: OVCAR-3 ovarian
OVCAR-4 ovarian = tested on: OVCAR-4 ovarian
OVCAR-5 ovarian = tested on: OVCAR-5 ovarian
OVCAR-8 ovarian = tested on: OVCAR-8 ovarian
PC-3 prostate = tested on: PC-3 prostate
RPMI-8226 leukemia = tested on: RPMI-8226 leukemia
RXF 393 renal = tested on: RXF 393 renal
SF-268 CNS = tested on: SF-268 CNS
SF-295 CNS = tested on: SF-295 CNS
SK-MEL-2 melanoma = tested on: SK-MEL-2 melanoma
SK-MEL-28 melanoma = tested on: SK-MEL-28 melanoma
SK-MEL-5 melanoma = tested on: SK-MEL-5 melanoma
SK-OV-3 ovarian = tested on: SK-OV-3 ovarian
SN12C renal = tested on: SN12C renal
SNB-19 CNS = tested on: SNB-19 CNS
SR leukemia = tested on: SR leukemia
SW-620 colon = tested on: SW-620 colon
TK-10 renal = tested on: TK-10 renal
U251 CNS = tested on: U251 CNS
UACC-257 melanoma = tested on: UACC-257 melanoma
UACC-62 melanoma = tested on: UACC-62 melanoma
UO-31 renal = tested on: UO-31 renal
CCRF-CEM leukemia = tested on: CCRF-CEM leukemia
HCT-116 colon = tested on: HCT-116 colon
HL-60(TB) leukemia = tested on: HL-60(TB) leukemia
HS 578T breast = tested on: HS 578T breast
IGROV1 ovarian = tested on: IGROV1 ovarian
KM12 colon = tested on: KM12 colon
LOX IMVI melanoma = tested on: LOX IMVI melanoma
SF-539 CNS = tested on: SF-539 CNS
SNB-75 CNS = tested on: SNB-75 CNS

## COc1cc2c[n+](C)c3c4cc(OC)c(OC)cc4c(OCc4ccccc4)cc3c2cc1OC
786-0 renal
  TGI: 12.3 µM
A498 renal
  TGI: > 86.7 µM
A549 NSCLC
  TGI: > 100 µM
ACHN renal
  TGI: > 100 µM
BT-549 breast
  TGI: 1.71 µM
CAKI-1 renal
  TGI: > 90.7 µM
COLO 205 colon
  TGI: 1.96 µM
DU-145 prostate
  TGI: 9.81 µM
EKVX NSCLC
  TGI: > 100 µM
HCC-2998 colon
  TGI: 41.3 µM
HCT-15 colon
  TGI: > 100 µM
HOP-62 NSCLC
  TGI: 10.5 µM
HOP-92 NSCLC
  TGI: 3.24 µM
HT29 colon
  TGI: 7.29 µM
K-562 leukemia
  TGI: > 100 µM
M14 melanoma
  TGI: 4.2 µM
MALME-3M melanoma
  TGI: 3.31 µM
MCF7 breast
  TGI: 5.05 µM
MDA-MB-231 breast
  TGI: 6.69 µM
MDA-MB-435
  TGI: 2.34 µM
MDA-N
  TGI: 2.53 µM
MOLT-4 leukemia
  TGI: > 80.1 µM
NCI-H226 lung
  TGI: 3.94 µM
NCI-H23 lung
  TGI: 4.36 µM
NCI-H460 lung
  TGI: > 100 µM
NCI-H522 lung
  TGI: 1.5 µM
NCI/ADR-RES ovarian
  TGI: > 100 µM
OVCAR-3 ovarian
  TGI: 3.97 µM
OVCAR-4 ovarian
  TGI: > 27.5 µM
OVCAR-5 ovarian
  TGI: > 100 µM
OVCAR-8 ovarian
  TGI: 5.02 µM
PC-3 prostate
  TGI: 3.41 µM
RPMI-8226 leukemia
  TGI: 77.2 µM
RXF 393 renal
  TGI: 6.19 µM
SF-268 CNS
  TGI: 1.97 µM
SF-295 CNS
  TGI: 96.9 µM
SK-MEL-2 melanoma
  TGI: 3.37 µM
SK-MEL-28 melanoma
  TGI: 2.55 µM
SK-MEL-5 melanoma
  TGI: 2.69 µM
SK-OV-3 ovarian
  TGI: > 100 µM
SN12C renal
  TGI: > 100 µM
SNB-19 CNS
  TGI: 1.92 µM
SR leukemia
  TGI: > 100 µM
SW-620 colon
  TGI: > 100 µM
TK-10 renal
  TGI: > 100 µM
U251 CNS
  TGI: 1.08 µM
UACC-257 melanoma
  TGI: 3.38 µM
UACC-62 melanoma
  TGI: 1.8 µM
UO-31 renal
  TGI: > 100 µM

## CCCCOC(=O)C(=O)C(CC(CC)C(=O)c1ccccc1)C(=O)C=C(C)C (stereo unspecified)
786-0 renal
  TGI: > 100 µM
A549 NSCLC
  TGI: > 100 µM
ACHN renal
  TGI: > 100 µM
BT-549 breast
  TGI: > 100 µM
CAKI-1 renal
  TGI: > 100 µM
CCRF-CEM leukemia
  TGI: > 100 µM
COLO 205 colon
  TGI: > 100 µM
DU-145 prostate
  TGI: > 100 µM
EKVX NSCLC
  TGI: > 100 µM
HCC-2998 colon
  TGI: > 100 µM
HCT-116 colon
  TGI: > 100 µM
HCT-15 colon
  TGI: > 100 µM
HL-60(TB) leukemia
  TGI: > 100 µM
HOP-62 NSCLC
  TGI: > 100 µM
HOP-92 NSCLC
  TGI: > 100 µM
HS 578T breast
  TGI: > 100 µM
IGROV1 ovarian
  TGI: > 100 µM
KM12 colon
  TGI: > 100 µM
LOX IMVI melanoma
  TGI: > 100 µM
M14 melanoma
  TGI: > 100 µM
MCF7 breast
  TGI: > 100 µM
MDA-MB-231 breast
  TGI: > 100 µM
MDA-MB-435
  TGI: > 100 µM
MDA-N
  TGI: > 100 µM
MOLT-4 leukemia
  TGI: > 100 µM
NCI-H226 lung
  TGI: > 100 µM
NCI-H23 lung
  TGI: > 100 µM
NCI-H460 lung
  TGI: > 100 µM
NCI-H522 lung
  TGI: > 100 µM
NCI/ADR-RES ovarian
  TGI: > 100 µM
OVCAR-3 ovarian
  TGI: > 100 µM
OVCAR-4 ovarian
  TGI: > 100 µM
OVCAR-5 ovarian
  TGI: > 100 µM
OVCAR-8 ovarian
  TGI: > 100 µM
PC-3 prostate
  TGI: > 100 µM
RXF 393 renal
  TGI: > 100 µM
SF-268 CNS
  TGI: > 100 µM
SF-295 CNS
  TGI: > 100 µM
SF-539 CNS
  TGI: > 100 µM
SK-MEL-2 melanoma
  TGI: > 100 µM
SK-MEL-28 melanoma
  TGI: > 100 µM
SK-MEL-5 melanoma
  TGI: > 100 µM
SK-OV-3 ovarian
  TGI: > 100 µM
SN12C renal
  TGI: > 100 µM
SNB-19 CNS
  TGI: > 100 µM
SNB-75 CNS
  TGI: > 100 µM
SW-620 colon
  TGI: > 100 µM
TK-10 renal
  TGI: > 100 µM
U251 CNS
  TGI: > 100 µM
UACC-257 melanoma
  TGI: > 100 µM
UACC-62 melanoma
  TGI: > 100 µM
UO-31 renal
  TGI: > 100 µM

## c1ccc2c3ccn4ccc5c6ccccc6[nH]c5c4c-3nc2c1
A498 renal
  TGI: 3.02 µM
A549 NSCLC
  TGI: 1.26 µM
ACHN renal
  TGI: 2.74 µM
BT-549 breast
  TGI: 3.6 µM
CAKI-1 renal
  TGI: 2.93 µM
COLO 205 colon
  TGI: 1.79 µM
DU-145 prostate
  TGI: 2.73 µM
EKVX NSCLC
  TGI: 2.72 µM
HCC-2998 colon
  TGI: 0.879 µM
HCT-116 colon
  TGI: 1.69 µM
HCT-15 colon
  TGI: 1.38 µM
HL-60(TB) leukemia
  TGI: 2.43 µM
HOP-62 NSCLC
  TGI: 2.76 µM
HOP-92 NSCLC
  TGI: 3.12 µM
HS 578T breast
  TGI: 5.23 µM
HT29 colon
  TGI: 1.11 µM
IGROV1 ovarian
  TGI: 2.83 µM
KM12 colon
  TGI: 2.3 µM
LOX IMVI melanoma
  TGI: 0.316 µM
M14 melanoma
  TGI: 3.79 µM
MALME-3M melanoma
  TGI: 3.06 µM
MCF7 breast
  TGI: 2.65 µM
MDA-MB-231 breast
  TGI: 1.31 µM
MDA-MB-435
  TGI: 2.89 µM
MDA-N
  TGI: 2.69 µM
NCI-H23 lung
  TGI: 3.61 µM
NCI-H460 lung
  TGI: 0.63 µM
NCI-H522 lung
  TGI: 3.27 µM
NCI/ADR-RES ovarian
  TGI: 4.27 µM
OVCAR-3 ovarian
  TGI: 0.315 µM
OVCAR-4 ovarian
  TGI: 0.552 µM
OVCAR-5 ovarian
  TGI: 2.92 µM
OVCAR-8 ovarian
  TGI: 0.638 µM
PC-3 prostate
  TGI: 2.71 µM
SF-295 CNS
  TGI: 3 µM
SF-539 CNS
  TGI: 2.98 µM
SK-MEL-2 melanoma
  TGI: 3.13 µM
SK-MEL-28 melanoma
  TGI: 3.2 µM
SK-MEL-5 melanoma
  TGI: 2.8 µM
SK-OV-3 ovarian
  TGI: 3.02 µM
SN12C renal
  TGI: 2.68 µM
SNB-19 CNS
  TGI: 2.93 µM
SNB-75 CNS
  TGI: 2.98 µM
SR leukemia
  TGI: 0.625 µM
SW-620 colon
  TGI: 0.34 µM
TK-10 renal
  TGI: 4.2 µM
U251 CNS
  TGI: 0.0992 µM
UACC-257 melanoma
  TGI: 4.25 µM
UACC-62 melanoma
  TGI: 3.51 µM
UO-31 renal
  TGI: 2.71 µM

— PubChem BioAssay (NCI)
